# Several values for one entry are separate records, joined by “and”; a condition that tells them apart may be missing. Equal entries are not always repeated. Where two headings read alike, the source gives them in different places.
# How the values were obtained:
# rats [1] = experiment: Alb, Fgb, Hp mRNA expression in liver of treated rats (FIG. 2); format: in vivo, rat
# Procedure: FIG. 2 is a graph showing a log2 fold change in expression of Alb, Fgb, and Hp mRNA (detected as cDNA), respectively, in liver of rats treated with DGAL, or with acetaminophen (APAP), as compared to references values determined from rats not treated with DGAL (Control; solid black boxes) or APAP (Control; solid black boxes), respectively.
# At 48 hours, Hp mRNA levels were increased by 9, 54 and 86 fold over controls, respectively, at 100, 700, and 1400 mg/kg APAP; while Alb mRNA levels were increased by 13 and 31 fold at 700 and 1400 mg/kg.
# rats [2] = details: 48 hours
# Procedure: (§1) In this example, to model a drug causing liver perturbation (such as injury or hepatotoxicity), hepatotoxicant D-galactosamine (“DGAL”) was administered to rats. Male Sprague-Dawley rats were administered DGAL at 0 (sterile PBS) or 1000 mg/kg intraperitoneally, and sacrificed after 24 hours. […] Blood was harvested from DGAL-treated rats, and serum liver enzymes were measured using a standard laboratory assay.
# (§2) In this example, to exemplify a drug causing liver injury, drug acetaminophen (“APAP”) was administered to rats. Rats were administered APAP at 0, 100, 700, and 1400 mg/kg by gavage, and then sacrificed at 6, 24 or 48 hours after treatment. Hematoxylin and eosin-stained liver sections were examined by an accredited pathologist and scored for incidence and severity of hepatocellular necrosis.
# rats [3] = experiment: Whole genome microarray analysis of plasma mRNA of treated rats; format: in vivo, rat; details: 24 h; for number of mRNA biomarkers differentially expressed: 2-fold change, false discovery rate <0.05
# Description: In this example, illustrated is whole genome microarray analysis, which can be used to reveal treatment-specific transcriptomic profiles following liver injury or liver enzyme induction. […] Total RNA was isolated from the 14,000×g plasma pellet from rats treated with DGAL or APAP. […] Next, this fragmented product was labeled via enzymatic attachment of a biotin-labeled nucleotide that contained an indicator molecule comprising a fluorophore. After this labeled cDNA was hybridized and bound to the oligonucleotides on the microarray, any unbound cDNA was washed away and the microarrays were scanned. During this process, the microarray chips were scanned at a wavelength that allowed the indicator molecule to fluoresce (the excitation wavelength). The level of mRNA biomarker was determined from the level of fluorescence (e.g., correlating to the amount of labeled cDNA hybridized to the microarray) using standard techniques. Data on measurement of mRNA biomarkers (which also may be representative of gene expression induced as a result of liver perturbation) was preprocessed using GC-RMA and log2-transformed. The probe-level microarray data was checked for quality using various graphical and statistical means. Arrays showing low quality RNA or poor amplification were excluded from the analysis. To evaluate the ability of whole genome microarray analysis using plasma mRNA to discriminate between DGAL- and APAP-induced liver perturbation, a one-way analysis of variance and individual t-tests were then used to identify which individual mRNA biomarkers were statistically altered between the two treatment groups. A false-discovery rate correction was used for multiple comparisons. Analysis software was utilized to identify networks of interacting genes and other functional groups using gene lists generated.
# rats [4] = details: rat, in vivo
# Procedure: as §1, §2
# Using methods described previously herein, liver enzymes including serum ALT and AST levels, and plasma mRNA levels, were also assessed to determine hepatotoxicity following APAP administration.
# Rats were treated with skeletal muscle toxicant bupivacaine (“BPVC”). For BPVC treatment, rats were administered 0.5 mL sterile saline or 0.5% w/v sterile solution of BPVC in saline once into both the right and left tibialis anterior muscles. […] To compare the specificity of circulating liver mRNAs with AST and ALT following skeletal muscle injury, rats were treated with BPVC, and then serum enzymes and circulating liver mRNAs were measured 24 hours after treatment.
# [5] = APAP 1400 mg/kg treatment group
# [6] = rat plasma, APAP 1400 mg/kg gavage
structure (smiles),measurement,setting,value
"CC(=O)Nc1ccc(O)cc1 [APAP, acetaminophen]",expression of Alb mRNA in liver,rats [1]; [5],significant decrease
same,expression of Hp mRNA in liver,rats [1]; [5],significant decrease
same,mortality,rats [2]; APAP 700 mg/kg gavage,one rat
same,mortality,rats [2]; APAP 1400 mg/kg gavage,one rat
same,number of mRNA biomarkers differentially expressed,rats [3]; APAP 1400 mg/kg gavage,1374
same,CYP450-related mRNAs in plasma,rats [3]; APAP 1400 mg/kg gavage,No increases
same,Fold increase Adam10,rats [3]; [6],14 fold
same,Fold increase Akt3,rats [3]; [6],4 fold
same,Fold increase Angpt1,rats [3]; [6],23 fold
same,Fold increase Arhgef12,rats [3]; [6],Arhgef12 (12); F2RI2 (12) fold
same,Fold increase B2M,rats [3]; [6],B2M (3) fold
same,Fold increase Calr,rats [3]; [6],3 fold
same,Fold increase Dapp1,rats [3]; [6],5 fold
same,Fold increase F2RI2,rats [3]; [6],Arhgef12 (12); F2RI2 (12) fold
same,Fold increase Fcgr2b,rats [3]; [6],7 fold
same,Fold increase Grin1,rats [3]; [6],10 fold
same,Fold increase Gsk3b,rats [3]; [6],Gsk3b (6) fold
same,Fold increase Hla-C,rats [3]; [6],23 fold
same,Fold increase Hla-E1,rats [3]; [6],9 fold
same,Fold increase Itga6,rats [3]; [6],19 fold
same,Fold increase Itgav,rats [3]; [6],Itgav (12) fold
same,Fold increase Itgb1,rats [3]; [6],17 fold
same,Fold increase Jak2,rats [3]; [6],13 fold
same,Fold increase Lyn,rats [3]; [6],10 fold
same,Fold increase Mapk1,rats [3]; [6],15 fold
same,Fold increase Nck2,rats [3]; [6],8 fold
same,Fold increase Pdia3,rats [3]; [6],Canx (5); Pdia3 (5); fold
same,Fold increase Prkc,rats [3]; [6],4 fold
same,Fold increase Prkcq,rats [3]; [6],3 fold
same,Fold increase Psap,rats [3]; [6],20 fold
same,Fold increase Rac1,rats [3]; [6],4 fold
same,Fold-Change Alb mRNA (first listing),rats [3]; [6],102.57 fold and 103 fold
same,Fold-Change Alb mRNA (second listing),rats [3]; [6],11.26 fold
same,Fold-Change Arhgap28 mRNA,rats [3]; [6],23.18 fold
same,Fold-Change C2cd21 mRNA,rats [3]; [6],21.52 fold
same,Fold-Change Ccl2 mRNA,rats [3]; [6],79.83 fold
same,Fold-Change Ceacam1 mRNA,rats [3]; [6],28.57 fold
same,Fold-Change Cxcl2 mRNA,rats [3]; [6],68.29 fold
same,Fold-Change Cxcl7 mRNA,rats [3]; [6],37.96 fold
same,Fold-Change Cxcl12 mRNA,rats [3]; [6],30.90 fold and 31 fold
same,Fold-Change Fam183b mRNA,rats [3]; [6],26.31 fold
same,Fold-Change G1p2 mRNA,rats [3]; [6],17.16 fold
same,Fold-Change Galnt1 mRNA,rats [3]; [6],22.06 fold
same,Fold-Change Gpnmb mRNA,rats [3]; [6],6.10 fold
same,Fold-Change Hspa1a mRNA,rats [3]; [6],40.60 fold
same,Fold-Change Hspa1b mRNA,rats [3]; [6],21.07 fold
same,Fold-Change Kcnab1 mRNA,rats [3]; [6],24.65 fold
same,Fold-Change LOC259245 mRNA,rats [3]; [6],4.94 fold
same,Fold-Change Lta4h mRNA,rats [3]; [6],6.27 fold
same,Fold-Change Mt2a mRNA,rats [3]; [6],16.40 fold
same,Fold-Change Pde5a mRNA,rats [3]; [6],24.18 fold
same,Fold-Change Pgrmc1 mRNA,rats [3]; [6],2.82 fold
same,Fold-Change Prdx5 mRNA,rats [3]; [6],2.57 fold
same,Fold-Change Ptprj mRNA,rats [3]; [6],61.43 fold
same,Fold-Change RT1-A2 mRNA,rats [3]; [6],22.73 fold
same,Fold-Change Rbp4 mRNA,rats [3]; [6],20.44 fold
same,Fold-Change Serpina1 mRNA,rats [3]; [6],24.15 fold
same,Fold-Change Slc24a3 mRNA (rat SEQ ID NO: 47),rats [3]; [6],25.57 fold
same,Fold-Change Slc24a3 mRNA (rat SEQ ID NO: 57),rats [3]; [6],22.11 fold
same,Fold-Change Srxn1 mRNA,rats [3]; [6],21.98 fold
same,Fold-Change St3gal2 mRNA,rats [3]; [6],21.94 fold
same,Fold-Change Tuba4a mRNA,rats [3]; [6],4.21 fold
same,Fold-Change Vcl mRNA,rats [3]; [6],70.40 fold and 70 fold
same,Fold-Change Xpo5 mRNA,rats [3]; [6],30.54 fold
"CCCCN1CCCCC1C(=O)Nc1c(C)cccc1C (stereo not shown) [BPVC, bupivacaine]",ALT,rats [4],73.70 ± 4.69 U/L
same,AST,rats [4],368.25 ± 31.81 U/L
same,elevation in serum ALT,rats [4],1.96 ×
same,elevation in serum AST,rats [4],3.58 ×
"N[C@H]1C(O)O[C@H](CO)[C@H](O)[C@@H]1O (stereo partly drawn) [DGAL, D-(+)-galactosamine]",expression of Alb mRNA in liver,rats [1]; DGAL-treated rats,small but statistically insignificant decrease
same,expression of Fgb mRNA in liver,rats [1]; DGAL-treated rats,significant decrease
same,expression of Hp mRNA in liver,rats [1]; DGAL-treated rats,significant decrease
same,number of mRNA biomarkers differentially expressed,rats [3]; DGAL 1000 mg/kg ip,804
same,Fold increase Aadat,"rats [3]; rat plasma, DGAL 1000 mg/kg ip",3 fold
same,Fold increase Apoc2,"rats [3]; rat plasma, DGAL 1000 mg/kg ip",23 fold
same,Fold increase C9,"rats [3]; rat plasma, DGAL 1000 mg/kg ip",10 fold
same,Fold increase Cf1h,"rats [3]; rat plasma, DGAL 1000 mg/kg ip",14 fold
same,Fold increase Cfb,"rats [3]; rat plasma, DGAL 1000 mg/kg ip",13 fold
same,Fold increase Cfi,"rats [3]; rat plasma, DGAL 1000 mg/kg ip",25 fold
same,Fold increase Cyp2a2,"rats [3]; rat plasma, DGAL 1000 mg/kg ip",15 fold
same,Fold increase Cyp2c9,"rats [3]; rat plasma, DGAL 1000 mg/kg ip",32 fold
same,Fold increase Cyp3a2,"rats [3]; rat plasma, DGAL 1000 mg/kg ip",26 fold
same,Fold increase Cyp3a4,"rats [3]; rat plasma, DGAL 1000 mg/kg ip",26 fold
same,Fold increase Cyp4f12,"rats [3]; rat plasma, DGAL 1000 mg/kg ip",13 fold
same,Fold increase F2,"rats [3]; rat plasma, DGAL 1000 mg/kg ip",14 fold
same,Fold increase Fga,"rats [3]; rat plasma, DGAL 1000 mg/kg ip",28 fold
same,Fold increase Mettl7b,"rats [3]; rat plasma, DGAL 1000 mg/kg ip",Mettl7b (9) fold
same,Fold increase Pla2g4a,"rats [3]; rat plasma, DGAL 1000 mg/kg ip",7 fold
same,Fold increase Plg,"rats [3]; rat plasma, DGAL 1000 mg/kg ip",17 fold
same,Fold increase Serping1,"rats [3]; rat plasma, DGAL 1000 mg/kg ip",7 fold
same,Fold-Change Alb mRNA (first listing),"rats [3]; rat plasma, DGAL 1000 mg/kg ip",83.32 fold and 83 fold
same,Fold-Change Alb mRNA (second listing),"rats [3]; rat plasma, DGAL 1000 mg/kg ip",77.08 fold
same,Fold-Change Ambp mRNA,"rats [3]; rat plasma, DGAL 1000 mg/kg ip",111.24 fold and 111 fold
same,Fold-Change Apoa1 mRNA,"rats [3]; rat plasma, DGAL 1000 mg/kg ip",53.34 fold and 53 fold
same,Fold-Change Apoc1 mRNA,"rats [3]; rat plasma, DGAL 1000 mg/kg ip",35.57 fold and 36 fold
same,Fold-Change Apoc3 mRNA,"rats [3]; rat plasma, DGAL 1000 mg/kg ip",58.09 fold
same,Fold-Change Apoh mRNA,"rats [3]; rat plasma, DGAL 1000 mg/kg ip",39.84 fold
same,Fold-Change Ccl2 mRNA,"rats [3]; rat plasma, DGAL 1000 mg/kg ip",25.35 fold
same,Fold-Change Cyp2c7 mRNA,"rats [3]; rat plasma, DGAL 1000 mg/kg ip",102.92 fold and 103 fold
same,Fold-Change Cyp2c13 mRNA,"rats [3]; rat plasma, DGAL 1000 mg/kg ip",40.38 fold and 40 fold
same,Fold-Change Fgg mRNA,"rats [3]; rat plasma, DGAL 1000 mg/kg ip",65.02 fold and 65 fold
same,Fold-Change Fgl1 mRNA,"rats [3]; rat plasma, DGAL 1000 mg/kg ip",52.04 fold
same,Fold-Change G1p2 mRNA,"rats [3]; rat plasma, DGAL 1000 mg/kg ip",5.78 fold
same,Fold-Change Gc mRNA,"rats [3]; rat plasma, DGAL 1000 mg/kg ip",42.82 fold
same,Fold-Change Gpnmb mRNA,"rats [3]; rat plasma, DGAL 1000 mg/kg ip",4.04 fold
same,Fold-Change Itih1 mRNA,"rats [3]; rat plasma, DGAL 1000 mg/kg ip",52.97 fold
same,Fold-Change Itih3 mRNA,"rats [3]; rat plasma, DGAL 1000 mg/kg ip",40.88 fold
same,Fold-Change Kng1 mRNA,"rats [3]; rat plasma, DGAL 1000 mg/kg ip",45.12 fold
same,Fold-Change LOC259245 mRNA,"rats [3]; rat plasma, DGAL 1000 mg/kg ip",11.52 fold
same,Fold-Change Lta4h mRNA,"rats [3]; rat plasma, DGAL 1000 mg/kg ip",3.40 fold
same,Fold-Change Mt2a mRNA,"rats [3]; rat plasma, DGAL 1000 mg/kg ip",18.20 fold
same,Fold-Change Mug1 mRNA,"rats [3]; rat plasma, DGAL 1000 mg/kg ip",108.00 fold
same,Fold-Change Obp3 mRNA,"rats [3]; rat plasma, DGAL 1000 mg/kg ip",96.26 fold
same,Fold-Change Pgrmc1 mRNA,"rats [3]; rat plasma, DGAL 1000 mg/kg ip",3.12 fold
same,Fold-Change Prdx5 mRNA,"rats [3]; rat plasma, DGAL 1000 mg/kg ip",2.03 fold
same,Fold-Change Rbp4 mRNA,"rats [3]; rat plasma, DGAL 1000 mg/kg ip",36.82 fold
same,Fold-Change Serpina1 mRNA,"rats [3]; rat plasma, DGAL 1000 mg/kg ip",12.61 fold
same,Fold-Change Serpina3k mRNA,"rats [3]; rat plasma, DGAL 1000 mg/kg ip",36.42 fold
same,Fold-Change Spp2 mRNA,"rats [3]; rat plasma, DGAL 1000 mg/kg ip",34.78 fold
same,Fold-Change Ttr mRNA,"rats [3]; rat plasma, DGAL 1000 mg/kg ip",60.61 fold and 61 fold
same,Fold-Change Tuba4a mRNA,"rats [3]; rat plasma, DGAL 1000 mg/kg ip",2.24 fold
same,Fold-Change Vtn mRNA,"rats [3]; rat plasma, DGAL 1000 mg/kg ip",57.99 fold
